In brackets after ≈: the same amount, converted by molar mass.
Tested on: Staphylococcus aureus Smith
Assay: MIC assay, modified agar dilution (CLSI), S. aureus Smith
Format: cell-based
Details: Staphylococcus aureus, agar dilution, 35° C., 16-20 hr; lowest concentration that completely inhibited growth; read-out: S_aureus_Smith_WT_MIC
How it was run: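 Strains were spotted at about 1×10^4 CFU onto compound-containing Mueller Hinton agar (two-fold series, 128-0.001 μg/mL), horse blood 5% added for pneumococcus and enterococcus. MIC read after 16-20 hr at 35 °C, following a modified CLSI agar dilution method.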

Compound	MIC
COc1ccc2ncc(F)c(CCC34CCC(NCc5cc6cccnc6n(C)c5=O)(CC3)CO4)c2n1.Cl [Example 183, 3-((1-(2-(3-Fluoro-6-methoxy-1,5-naphthyridin-4-yl)ethyl)-2-oxabicyclo[2.2.2]octan-4-ylamino)methyl)-1-methyl-1,8-naphthyridin-2(1H)-one Hydrochloride]	1 µg/mL
N[C@@H]1CO[C@@H]1COc1ccc2ncc(F)c(CCC34CCC(NCc5ccc6c(n5)NC(=O)CO6)(CC3)CO4)c2n1 [Example 184, 6-((1-(2-(6-(((2S,3R)-3-Aminooxetan-2-yl)methoxy)-3-fluoro-1,5-naphthyridin-4-yl)ethyl)-2-oxabicyclo[2.2.2]octan-4-ylamino)methyl)-2H-pyrido[3,2-b][1,4]oxazin-3(4H)-one]	0.25 µg/mL (≈ 0.443 µM)
N[C@@H]1CO[C@H]1COc1ccc2ncc(F)c(CCC34CCC(NCc5ccc6c(n5)NC(=O)CO6)(CC3)CO4)c2n1 [Example 185, 6-((1-(2-(6-(((2R,3R)-3-Aminooxetan-2-yl)methoxy)-3-fluoro-1,5-naphthyridin-4-yl)ethyl)-2-oxabicyclo[2.2.2]octan-4-ylamino)methyl)-2H-pyrido[3,2-b][1,4]oxazin-3(4H)-one]	0.125 µg/mL (≈ 0.221 µM)
C=CCOc1ccc2ncc(F)c(CCC34CCC(NCc5ccc6c(n5)NC(=O)CO6)(CC3)CO4)c2n1 [Example 186, 6-{[(1-{2-[3-Fluoro-6-(prop-2-en-1-yloxy)-1,5-naphthyridin-4-yl]ethyl}-2-oxabicyclo[2.2.2]oct-4-yl)amino]methyl}-2H-pyrido[3,2-b][1,4]oxazin-3(4H)-one]	0.063 µg/mL (≈ 0.121 µM)
COc1ccc2ncc(F)c(CCC34CCC(NC/C=C/c5cc(F)ccc5F)(CC3)CO4)c2n1 [Example 188, (E)-N-(3-(2,5-Difluorophenyl)allyl)-1-(2-(3-fluoro-6-methoxy-1,5-naphthyridin-4-yl)ethyl)-2-oxabicyclo[2.2.2]octan-4-amine]	0.016 µg/mL (≈ 0.0331 µM)
COc1cc(F)c2ncc(F)c(CCC34CCC(NCc5ccc6c(n5)NC(=O)CO6)(CC3)CO4)c2c1.Cl [Example 189, 6-((1-(2-(3,8-Difluoro-6-methoxyquinolin-4-yl)ethyl)-2-oxabicyclo[2.2.2]octan-4-ylamino)methyl)-2H-pyrido[3,2-b][1,4]oxazin-3(4H)-one Hydrochloride]	0.016 µg/mL
COc1ccc2ncc(F)c(CC(C)(O)C34CCC(NCc5ccc6c(n5)NC(=O)CO6)(CC3)CO4)c2n1.Cl (stereo not shown) [Example 190, 6-((1-(1-(3-Fluoro-6-methoxy-1,5-naphthyridin-4-yl)-2-hydroxypropan-2-yl)-2-oxabicyclo[2.2.2]octan-4-ylamino)methyl)-2H-pyrido[3,2-b][1,4]oxazin-3(4H)-one Hydrochloride]	0.063 µg/mL
COc1cc(C)c2ncc(F)c(CCC34CCC(NCc5ccc6c(n5)NC(=O)CO6)(CC3)CO4)c2n1.Cl [Example 191, 6-((1-(2-(3-Fluoro-6-methoxy-8-methyl-1,5-naphthyridin-4-yl)ethyl)-2-oxabicyclo[2.2.2]octan-4-ylamino)methyl)-2H-pyrido[3,2-b][1,4]oxazin-3(4H)-one Hydrochloride]	0.016 µg/mL
CNC(=O)COc1ccc2ncc(F)c(CCC34CCC(NC/C=C/c5cc(F)ccc5F)(CC3)CO4)c2n1 [Example 192, (E)-2-(8-(2-(4-(3-(2,5-Difluorophenyl)allylamino)-2-oxabicyclo[2.2.2]octan-1-yl)ethyl)-7-fluoro-1,5-naphthyridin-2-yloxy)-N-methylacetamide]	0.031 µg/mL (≈ 0.0573 µM)
COc1ccc2ncc(F)c(CCC34CCC(NC/C=C/c5ccccn5)(CC3)CO4)c2n1 [Example 193, (E)-1-(2-(3-Fluoro-6-methoxy-1,5-naphthyridin-4-yl)ethyl)-N-(3-(pyridin-2-yl)allyl)-2-oxabicyclo[2.2.2]octan-4-amine]	0.031 µg/mL (≈ 0.0691 µM)
COc1ccc2ncc(F)c(C(CO)CC34CCC(NCc5ccc6c(n5)NC(=O)CO6)(CC3)CO4)c2n1.Cl (stereo not shown) [Example 194, 1-(2-(3-Fluoro-6-methoxy-1,5-naphthyridin-4-yl)-3-hydroxypropyl)-N-((3-oxo-3,4-dihydro-2H-pyrido[3,2-b][1,4]oxazin-6-yl)methyl)-2-oxabicyclo[2.2.2]octan-4-aminium chloride]	1 µg/mL
COc1ccc2ncc(F)c(C(CC34CCC(NCc5ccc6c(n5)NC(=O)CO6)(CC3)CO4)C(=O)[O-])c2n1.[Na+] (stereo not shown) [Example 195, Sodium 2-(3-fluoro-6-methoxy-1,5-naphthyridin-4-yl)-3-(4-(((3-oxo-3,4-dihydro-2H-pyrido[3,2-b][1,4]oxazin-6-yl)methyl)amino)-2-oxabicyclo[2.2.2]octan-1-yl)propanoate]	1 µg/mL
COc1ccc2ncc(F)c(CCC34CCC(NC(=O)c5nc6c(cc5Cl)SCC(=O)N6)(CC3)CC4)c2n1 [Example 196, 7-Chloro-N-(4-(2-(3-fluoro-6-methoxy-1,5-naphthyridin-4-yl)ethyl)bicyclo[2.2.2]octan-1-yl)-3-oxo-3,4-dihydro-2H-pyrido[3,2-b][1,4]thiazine-6-carboxamide]	0.25 µg/mL (≈ 0.45 µM)
COc1ccc2ncc(F)c(CCC34CCC(NCc5nc6c(c(C)c5F)OCC(=O)N6)(CC3)CO4)c2n1.Cl [Example 197, 1-(2-(3-Fluoro-6-methoxy-1,5-naphthyridin-4-yl)ethyl)-N-((7-fluoro-8-methyl-3-oxo-3,4-dihydro-2H-pyrido[3,2-b][1,4]oxazin-6-yl)methyl)-2-oxabicyclo[2.2.2]octan-4-aminium chloride]	0.5 µg/mL
CCc1c(CNC23CCC(CCc4c(F)cnc5ccc(OC)nc45)(CC2)OC3)nc2c(c1C)OCC(=O)N2.Cl [Example 198, N-((7-Ethyl-8-methyl-3-oxo-3,4-dihydro-2H-pyrido[3,2-b][1,4]oxazin-6-yl)methyl)-1-(2-(3-fluoro-6-methoxy-1,5-naphthyridin-4-yl)ethyl)-2-oxabicyclo[2.2.2]octan-4-aminium chloride]	2 µg/mL
C=Cc1c(CNC23CCC(CCc4c(F)cnc5ccc(OC)nc45)(CC2)OC3)nc2c(c1C)OCC(=O)N2.Cl [Example 199, 1-(2-(3-Fluoro-6-methoxy-1,5-naphthyridin-4-yl)ethyl)-N-((8-methyl-3-oxo-7-vinyl-3,4-dihydro-2H-pyrido[3,2-b][1,4]oxazin-6-yl)methyl)-2-oxabicyclo[2.2.2]octan-4-aminium chloride]	0.25 µg/mL
N#Cc1ccc2c(c1)N(CCC13CCC(NCc4ccc5c(n4)NC(=O)CO5)(CC1)CO3)C(=O)CO2 [Example 202, 1-(2-(6-Cyano-3-oxo-2H-benzo[b][1,4]oxazin-4(3H)-yl)ethyl)-N-((3-oxo-3,4-dihydro-2H-pyrido[3,2-b][1,4]oxazin-6-yl)methyl)-2-oxabicyclo[2.2.2]octan-4-aminium chloride]	0.25 µg/mL
O=C1COc2ccc(CNC34CCC(CCN5C(=O)COc6ccc(Br)cc65)(CC3)OC4)nc2N1 [Example 203, 1-(2-(6-Bromo-3-oxo-2H-benzo[b][1,4]oxazin-4(3H)-yl)ethyl)-N-((3-oxo-3,4-dihydro-2H-pyrido[3,2-b][1,4]oxazin-6-yl)methyl)-2-oxabicyclo[2.2.2]octan-4-aminium chloride]	0.25 µg/mL
COc1ccc2ncc(F)c(C[C@H](O)C34CCC(NCc5ccc6c(c5)NC(=O)CS6)(CC3)CO4)c2n1.Cl [Example 204, (S)-1-(2-(3-Fluoro-6-methoxy-1,5-naphthyridin-4-yl)-1-hydroxyethyl)-N-((3-oxo-3,4-dihydro-2H-benzo[b][1,4]thiazin-6-yl)methyl)-2-oxabicyclo[2.2.2]octan-4-aminium chloride]	0.06 µg/mL
COc1ccc2ncc(F)c(C[C@H](O)C34CCC(NCc5ccc6c(c5)NC(=O)CS6(=O)=O)(CC3)CO4)c2n1 [Example 205, (S)—N-((1,1-Dioxido-3-oxo-3,4-dihydro-2H-benzo[b][1,4]thiazin-6-yl)methyl)-1-(2-(3-fluoro-6-methoxy-1,5-naphthyridin-4-yl)-1-hydroxyethyl)-2-oxabicyclo[2.2.2]octan-4-aminium chloride]	2 µg/mL
COc1ccc2ncc(F)c(C[C@H](O)C34CCC(NCc5ccc6c(n5)NCCO6)(CC3)CO4)c2n1 [Example 206, (S)-6-(((1-(2-(3-Fluoro-6-methoxy-1,5-naphthyridin-4-yl)-1-hydroxyethyl)-2-oxabicyclo[2.2.2]octan-4-yl)ammonio)methyl)-3,4-dihydro-2H-pyrido[3,2-b][1,4]oxazin-4-ium chloride]	0.06 µg/mL
COc1ccc2ncc(F)c(CCC34CCC(NCc5ccc6c(n5)OCCN6)(CC3)CO4)c2n1 [Example 207, 6-(((1-(2-(3-Fluoro-6-methoxy-1,5-naphthyridin-4-yl)ethyl)-2-oxabicyclo[2.2.2]octan-4-yl)ammonio)methyl)-2,3-dihydro-1H-pyrido[2,3-b][1,4]oxazin-1-ium chloride]	0.5 µg/mL
COc1ccc2ncc(F)c(C(O)CC34CCC(NCc5ccc6c(n5)NC(=O)CO6)(CC3)CS4)c2n1 (stereo not shown) [Example 208, 6-(((1-(2-(3-Fluoro-6-methoxy-1,5-naphthyridin-4-yl)-2-hydroxyethyl)-2-thiabicyclo[2.2.2]octan-4-yl)amino)methyl)-2H-pyrido[3,2-b][1,4]oxazin-3(4H)-one]	0.06 µg/mL (≈ 0.114 µM)
CC(O)(CC12CCC(NCc3ccc4c(n3)NC(=O)CO4)(CC1)CO2)c1c(F)cnc2ccc(OCCO)nc12 (stereo not shown) [Example 209, 1-(2-(3-Fluoro-6-(2-hydroxyethoxy)-1,5-naphthyridin-4-yl)-2-hydroxypropyl)-N-((3-oxo-3,4-dihydro-2H-pyrido[3,2-b][1,4]oxazin-6-yl)methyl)-2-oxabicyclo[2.2.2]octan-4-aminium chloride]	8 µg/mL
O=C1COc2ccc(CNC34CCC(CC(O)c5c(F)cnc6ccc(OCCCO)nc56)(CC3)OC4)nc2N1 (stereo not shown) [Example 210, 1-(2-(3-Fluoro-6-(3-hydroxypropoxy)-1,5-naphthyridin-4-yl)-2-hydroxyethyl)-N-((3-oxo-3,4-dihydro-2H-pyrido[3,2-b][1,4]oxazin-6-yl)methyl)-2-oxabicyclo[2.2.2]octan-4-aminium chloride]	0.25 µg/mL
